Measured values published in patent publication US8415469B2, “Compounds and methods for kinase modulation, and indications therefor” (Plexxikon Inc., priority 2005, dated 2013).

How the values were obtained:
Format in all cases: biochemical
[1] = biological target: T1, Flt1 (Homo sapiens, UniProt P17948); assay: AlphaScreen kinase assay, Flt1; settings: read-out: IC50, activity toward kinase Flt1
T1 construct: P1826.pETN6 BI-PTP FLT1 M799-D1165-X WT; His6 (N); made in house; host or cells: E. coli (PTP1B co-expressed)
T1 sequence (P17948 with tags, fused parts or gaps): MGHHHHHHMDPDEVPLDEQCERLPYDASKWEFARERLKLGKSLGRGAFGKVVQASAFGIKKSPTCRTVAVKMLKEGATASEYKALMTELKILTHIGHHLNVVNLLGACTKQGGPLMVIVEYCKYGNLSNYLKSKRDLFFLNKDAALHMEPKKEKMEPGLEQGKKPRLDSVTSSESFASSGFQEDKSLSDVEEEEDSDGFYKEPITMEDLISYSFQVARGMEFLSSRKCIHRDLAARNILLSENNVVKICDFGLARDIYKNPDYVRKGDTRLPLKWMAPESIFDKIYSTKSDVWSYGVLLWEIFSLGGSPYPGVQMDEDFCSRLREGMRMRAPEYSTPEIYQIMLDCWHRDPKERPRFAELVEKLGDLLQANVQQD

[2] = biological target: T2, Src (Homo sapiens, UniProt P12931); assay: AlphaScreen kinase assay, Src; settings: read-out: IC50, activity toward kinase Src
T2 construct: P1144. pET-N6 BI-PTP SRC V86-L536-X; made in house

[3] = biological target: T3, Kdr (Homo sapiens, UniProt P35968); assay: Z'-Lyte FRET kinase assay (Invitrogen), Kdr; settings: read-out: IC50, activity toward kinase Kdr
T3 construct: purchased Invitrogen (assay run by Invitrogen)
T3 sequence (P35968 20-1356): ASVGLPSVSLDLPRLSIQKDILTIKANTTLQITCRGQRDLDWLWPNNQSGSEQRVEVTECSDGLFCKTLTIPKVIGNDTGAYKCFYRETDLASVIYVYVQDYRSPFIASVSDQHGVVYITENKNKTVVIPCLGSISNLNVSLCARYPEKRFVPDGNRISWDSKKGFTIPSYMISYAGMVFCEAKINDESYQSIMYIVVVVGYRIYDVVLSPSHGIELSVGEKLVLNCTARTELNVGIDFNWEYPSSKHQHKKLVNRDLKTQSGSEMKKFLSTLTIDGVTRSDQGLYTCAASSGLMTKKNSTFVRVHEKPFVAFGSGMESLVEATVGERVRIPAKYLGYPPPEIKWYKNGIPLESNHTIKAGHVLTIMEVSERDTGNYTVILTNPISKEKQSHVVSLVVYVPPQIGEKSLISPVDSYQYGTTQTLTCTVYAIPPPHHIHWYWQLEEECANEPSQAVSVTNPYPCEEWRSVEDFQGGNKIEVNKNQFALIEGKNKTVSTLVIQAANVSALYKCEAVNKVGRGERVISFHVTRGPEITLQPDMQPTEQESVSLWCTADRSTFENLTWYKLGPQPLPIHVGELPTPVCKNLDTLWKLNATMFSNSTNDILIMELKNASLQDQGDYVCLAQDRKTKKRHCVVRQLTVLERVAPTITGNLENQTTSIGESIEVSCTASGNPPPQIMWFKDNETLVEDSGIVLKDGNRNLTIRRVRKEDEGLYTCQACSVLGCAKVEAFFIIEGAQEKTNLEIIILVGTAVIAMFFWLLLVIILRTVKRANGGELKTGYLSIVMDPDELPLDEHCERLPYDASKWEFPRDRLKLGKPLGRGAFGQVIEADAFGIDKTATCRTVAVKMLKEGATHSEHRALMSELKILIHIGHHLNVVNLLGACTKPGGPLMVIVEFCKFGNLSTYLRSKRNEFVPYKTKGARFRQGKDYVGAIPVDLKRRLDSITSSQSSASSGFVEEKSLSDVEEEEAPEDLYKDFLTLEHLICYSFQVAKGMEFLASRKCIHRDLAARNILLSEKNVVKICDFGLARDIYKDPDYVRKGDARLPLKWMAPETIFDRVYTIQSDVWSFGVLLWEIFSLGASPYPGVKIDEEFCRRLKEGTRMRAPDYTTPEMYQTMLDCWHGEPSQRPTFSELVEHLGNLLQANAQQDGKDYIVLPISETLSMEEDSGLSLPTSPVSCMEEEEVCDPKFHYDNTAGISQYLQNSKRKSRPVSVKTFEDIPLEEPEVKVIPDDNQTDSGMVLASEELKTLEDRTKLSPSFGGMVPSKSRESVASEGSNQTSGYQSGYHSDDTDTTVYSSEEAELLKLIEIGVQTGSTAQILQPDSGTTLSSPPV

[4] = biological target: T4, Zap70 (Homo sapiens, UniProt P43403); assay: AlphaScreen kinase assay, Zap70; settings: read-out: IC50, activity toward kinase Zap70
T4 construct: P1868.pFastBac1 ZAP70 D327-G606 HIS, WT; His7 (HHHHHHH) (C); made in house
T4 sequence (P43403 with tags, fused parts or gaps): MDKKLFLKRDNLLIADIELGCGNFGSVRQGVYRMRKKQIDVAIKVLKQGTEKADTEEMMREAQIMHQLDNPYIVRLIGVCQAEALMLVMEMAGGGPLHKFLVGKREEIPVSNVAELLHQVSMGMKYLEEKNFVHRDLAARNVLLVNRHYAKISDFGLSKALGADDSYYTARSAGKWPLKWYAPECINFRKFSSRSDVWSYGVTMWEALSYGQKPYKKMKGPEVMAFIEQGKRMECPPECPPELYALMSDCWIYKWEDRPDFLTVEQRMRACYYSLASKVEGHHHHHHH
How it was run: (§1)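 Here, phosphorylation of a biotin-tagged peptide was sensed by proximity of streptavidin donor and antibody-bearing acceptor beads. Test compounds covered 8 concentrations by 1:3 serial dilution of 20 mM DMSO stocks.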

[5] = biological target: T5, Flt4 (Homo sapiens, UniProt P35916); assay: AlphaScreen kinase assay, Flt4; settings: read-out: IC50, activity toward kinase Flt4
T5 construct: purchased ProQinase GmbH (Freiburg, Germany)
How it was run: as §1

[6] = biological target: T6, Pyk2 (Homo sapiens, UniProt Q14289); assay: AlphaScreen kinase assay, Pyk2; settings: read-out: IC50, activity toward kinase Pyk2
T6 construct: purchased Upstate Biotechnology
T6 sequence (Q14289 whole entry): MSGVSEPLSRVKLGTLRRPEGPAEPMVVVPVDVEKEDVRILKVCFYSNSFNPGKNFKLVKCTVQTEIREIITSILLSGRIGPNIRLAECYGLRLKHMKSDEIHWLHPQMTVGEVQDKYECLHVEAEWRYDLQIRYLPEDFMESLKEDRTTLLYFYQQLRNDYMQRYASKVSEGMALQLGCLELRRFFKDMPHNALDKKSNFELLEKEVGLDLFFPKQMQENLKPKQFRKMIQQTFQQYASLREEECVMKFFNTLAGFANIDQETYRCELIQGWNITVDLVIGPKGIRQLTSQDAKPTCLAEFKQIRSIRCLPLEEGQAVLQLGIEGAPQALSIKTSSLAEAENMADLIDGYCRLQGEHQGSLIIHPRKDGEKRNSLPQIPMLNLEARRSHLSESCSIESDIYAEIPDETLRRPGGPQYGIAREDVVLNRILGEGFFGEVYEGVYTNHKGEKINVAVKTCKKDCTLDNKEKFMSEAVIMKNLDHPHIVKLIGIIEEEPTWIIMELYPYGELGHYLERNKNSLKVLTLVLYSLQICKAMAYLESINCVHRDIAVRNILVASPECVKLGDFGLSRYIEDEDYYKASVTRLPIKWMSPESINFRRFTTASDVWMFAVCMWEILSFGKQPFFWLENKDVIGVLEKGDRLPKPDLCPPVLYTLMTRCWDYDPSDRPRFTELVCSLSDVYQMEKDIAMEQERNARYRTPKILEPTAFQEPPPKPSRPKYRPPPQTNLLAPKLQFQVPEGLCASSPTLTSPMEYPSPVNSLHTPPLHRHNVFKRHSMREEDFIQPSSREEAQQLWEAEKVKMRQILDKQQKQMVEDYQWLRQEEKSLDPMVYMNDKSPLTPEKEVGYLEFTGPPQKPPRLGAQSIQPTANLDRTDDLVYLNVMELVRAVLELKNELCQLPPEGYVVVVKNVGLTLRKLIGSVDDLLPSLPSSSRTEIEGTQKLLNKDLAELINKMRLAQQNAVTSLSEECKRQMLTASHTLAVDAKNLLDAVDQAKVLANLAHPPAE

[7] = biological target: T7, Abl (Homo sapiens, UniProt P00519); assay: AlphaScreen kinase assay, Abl; settings: read-out: activity toward kinase Abl, IC50
T7 construct: P1121. pET-SPEC BI-PTP Abl G227-V515-X; His6 (N); made in house; host or cells: E. coli (PTP1B co-expressed)
T7 sequence (P00519 with tags, fused parts or gaps): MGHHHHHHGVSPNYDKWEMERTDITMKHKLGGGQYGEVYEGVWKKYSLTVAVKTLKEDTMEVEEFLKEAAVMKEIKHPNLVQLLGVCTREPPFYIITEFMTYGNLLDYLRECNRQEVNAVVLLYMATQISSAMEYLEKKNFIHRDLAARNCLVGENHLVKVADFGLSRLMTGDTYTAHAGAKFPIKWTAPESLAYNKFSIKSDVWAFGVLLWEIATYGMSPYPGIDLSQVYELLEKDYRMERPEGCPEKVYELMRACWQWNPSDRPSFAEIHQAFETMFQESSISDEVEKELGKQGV
How it was run: as §1

[8] = biological target: T8, B-Raf (Homo sapiens, UniProt P15056); assay: AlphaScreen kinase assay, B-Raf; settings: read-out: IC50, activity toward kinase B-Raf
T8 construct: purchased Upstate Biotechnology
T8 sequence (P15056 whole entry): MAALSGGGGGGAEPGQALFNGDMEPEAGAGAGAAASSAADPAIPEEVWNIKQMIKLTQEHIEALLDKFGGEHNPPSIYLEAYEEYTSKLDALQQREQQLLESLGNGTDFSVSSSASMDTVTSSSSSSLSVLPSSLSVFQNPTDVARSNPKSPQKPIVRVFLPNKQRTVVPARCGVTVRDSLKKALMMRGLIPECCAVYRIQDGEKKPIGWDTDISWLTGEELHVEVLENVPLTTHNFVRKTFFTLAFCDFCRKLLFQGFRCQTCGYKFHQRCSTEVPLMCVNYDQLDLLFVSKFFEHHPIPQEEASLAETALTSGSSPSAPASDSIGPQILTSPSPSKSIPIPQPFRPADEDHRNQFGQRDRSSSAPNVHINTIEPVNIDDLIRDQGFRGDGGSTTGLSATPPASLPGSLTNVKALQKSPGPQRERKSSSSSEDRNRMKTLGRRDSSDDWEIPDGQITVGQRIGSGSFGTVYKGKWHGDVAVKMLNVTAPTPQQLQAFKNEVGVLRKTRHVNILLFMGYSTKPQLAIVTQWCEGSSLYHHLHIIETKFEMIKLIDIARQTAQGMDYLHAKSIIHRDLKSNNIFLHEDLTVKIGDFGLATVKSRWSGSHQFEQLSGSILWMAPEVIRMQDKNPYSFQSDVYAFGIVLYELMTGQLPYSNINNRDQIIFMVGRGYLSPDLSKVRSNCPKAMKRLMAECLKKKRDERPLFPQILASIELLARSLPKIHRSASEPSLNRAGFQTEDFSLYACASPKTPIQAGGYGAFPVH

[9] = biological target: T9, Erk2 (Homo sapiens, UniProt P28482); assay: AlphaScreen kinase assay, Erk2; settings: read-out: IC50, activity toward kinase Erk2
T9 construct: P4227.pET15S ERK2/MEK1DD; His6 with thrombin site (N); made in house
T9 sequence (P28482 with tags, fused parts or gaps): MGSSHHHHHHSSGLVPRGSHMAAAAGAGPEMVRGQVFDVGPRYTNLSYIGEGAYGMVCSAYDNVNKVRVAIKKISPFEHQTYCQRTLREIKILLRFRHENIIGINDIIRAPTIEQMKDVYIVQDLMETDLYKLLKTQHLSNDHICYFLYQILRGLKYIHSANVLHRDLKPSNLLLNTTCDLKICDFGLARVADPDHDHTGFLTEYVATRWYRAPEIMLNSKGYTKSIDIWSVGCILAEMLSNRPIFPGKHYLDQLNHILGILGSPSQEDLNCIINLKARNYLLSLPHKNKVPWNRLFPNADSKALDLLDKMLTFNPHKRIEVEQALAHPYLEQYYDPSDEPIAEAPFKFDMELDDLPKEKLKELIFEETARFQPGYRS
Description: AlphaScreen assay was used to screen additional kinases. The assay is similarly dependent on the phosphorylation of a peptide substrate. In this assay, an antibody that recognizes phosphorylated substrate is bound to an acceptor bead. The peptide substrate is attached to biotin, which binds to a donor head that contains streptavidin. Thus phosphorylated substrate is bound by antibody and streptavidin, bringing the donor and acceptor heads into close proximity when kinase is not inhibited. The donor produces singlet oxygen which results in emission from the acceptor when they are in close proximity. Conversely, when kinase is inhibited, the donor and acceptor beads are not associated and the emission from the acceptor is reduced.
AlphaScreen assays were done using compounds dissolved in DMSO to a concentration of 20 mM. The compounds were diluted accordingly to the desired final concentrations in each sample well, using 1:3 serial dilution for a total of 8 concentration points.

[10] = biological target: T10, Met (Homo sapiens, UniProt P08581); assay: AlphaScreen kinase assay, Met; settings: read-out: IC50, activity toward kinase Met
T10 construct: P1818.pETN6 BI-PTP MET G1056-G1364-X WT; His6 (N); made in house; host or cells: E. coli (PTP1B co-expressed)
T10 sequence (P08581 with tags, fused parts or gaps): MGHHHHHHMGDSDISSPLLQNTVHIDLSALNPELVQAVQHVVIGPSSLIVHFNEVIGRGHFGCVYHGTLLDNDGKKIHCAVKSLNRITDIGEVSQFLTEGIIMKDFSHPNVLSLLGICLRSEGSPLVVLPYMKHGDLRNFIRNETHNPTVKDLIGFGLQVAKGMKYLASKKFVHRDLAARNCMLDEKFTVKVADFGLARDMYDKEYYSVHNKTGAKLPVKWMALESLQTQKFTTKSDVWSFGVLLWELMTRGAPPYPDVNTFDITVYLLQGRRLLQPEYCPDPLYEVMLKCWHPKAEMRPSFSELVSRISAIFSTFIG
How it was run: as §1

[11] = biological target: T11, B-Raf V600E (Homo sapiens, UniProt P15056, V600E); assay: AlphaScreen kinase assay, B-Raf V600E; settings: read-out: IC50, activity toward kinase B-Raf V600E
T11 construct: P4254. pFastBacBD-CDC37 BRAF D437-K722-X, V600E; His6 with pFastBac HT leader (TEV site) (N); made in house; host or cells: Sf9 (baculovirus; chaperone CDC37 co-expressed)

[12] = biological target: T12, FGFR1 (Homo sapiens, UniProt P11362, C488A/C584S); assay: AlphaScreen kinase assay, FGFR1; settings: read-out: IC50, activity toward kinase FGFR
T12 construct: P1351.pET N6 BI-PTP FGFR A458-E765-X C488A, C584S; made in house; host or cells: E. coli (PTP1B co-expressed)
T12 sequence (P11362 458-765 C488A/C584S): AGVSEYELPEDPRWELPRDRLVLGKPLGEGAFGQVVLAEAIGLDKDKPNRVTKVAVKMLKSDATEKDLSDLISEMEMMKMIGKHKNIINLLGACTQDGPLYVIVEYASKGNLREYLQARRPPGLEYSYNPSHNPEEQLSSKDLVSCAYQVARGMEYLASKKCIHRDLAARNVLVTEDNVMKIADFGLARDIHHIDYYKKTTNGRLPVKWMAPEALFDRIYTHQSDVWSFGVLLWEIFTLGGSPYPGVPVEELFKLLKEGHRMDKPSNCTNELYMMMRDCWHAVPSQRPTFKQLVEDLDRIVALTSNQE

[13] = biological target: T13, Jnk3 (Homo sapiens, UniProt P53779); assay: AlphaScreen kinase assay, Jnk3; settings: read-out: IC50, activity toward kinase Jnk3
T13 construct: purchased Upstate Biotechnology

[14] = biological target: T14, Ret (Homo sapiens, UniProt P07949); assay: AlphaScreen kinase assay, Ret; settings: read-out: IC50, activity toward kinase Ret
T14 construct: P1378.pET-SF BI-PTP RET H661-R1012 HIS; made in house
T14 sequence (P07949 with tags, fused parts or gaps): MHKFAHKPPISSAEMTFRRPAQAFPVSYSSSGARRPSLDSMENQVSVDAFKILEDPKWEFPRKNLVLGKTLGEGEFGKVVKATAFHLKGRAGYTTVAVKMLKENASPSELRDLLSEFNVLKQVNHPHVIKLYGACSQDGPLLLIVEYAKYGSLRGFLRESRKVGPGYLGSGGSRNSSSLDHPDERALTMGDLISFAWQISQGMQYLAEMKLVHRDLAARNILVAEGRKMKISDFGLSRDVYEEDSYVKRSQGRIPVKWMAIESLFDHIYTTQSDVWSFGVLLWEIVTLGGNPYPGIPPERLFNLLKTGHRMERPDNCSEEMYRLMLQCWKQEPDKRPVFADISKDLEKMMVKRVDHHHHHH

[15] = biological target: T15, Kit (Homo sapiens, UniProt P10721); assay: AlphaScreen kinase assay, Kit; settings: read-out: IC50, activity toward kinase Kit
T15 construct: P1332.N6 BI PTP KIT M552-K948-X COD; His6 (N); made in house; host or cells: E. coli (PTP1B co-expressed)
T15 sequence (P10721 with tags, fused parts or gaps): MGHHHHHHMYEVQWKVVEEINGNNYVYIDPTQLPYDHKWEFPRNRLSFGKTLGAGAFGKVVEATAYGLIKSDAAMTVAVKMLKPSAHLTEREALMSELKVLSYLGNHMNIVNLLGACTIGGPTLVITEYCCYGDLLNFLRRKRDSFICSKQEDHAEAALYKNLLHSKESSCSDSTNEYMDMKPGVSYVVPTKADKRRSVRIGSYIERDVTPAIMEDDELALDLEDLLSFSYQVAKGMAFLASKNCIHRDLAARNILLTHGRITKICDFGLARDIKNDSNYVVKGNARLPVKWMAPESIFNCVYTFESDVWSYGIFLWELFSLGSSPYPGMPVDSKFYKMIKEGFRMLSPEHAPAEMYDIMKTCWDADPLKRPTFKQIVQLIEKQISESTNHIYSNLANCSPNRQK

[16] = biological target: T16, Fak (Homo sapiens, UniProt Q05397); assay: AlphaScreen kinase assay, Fak; settings: read-out: IC50, activity toward kinase Fak
T16 construct: P1358.pFastBacHtb FAK S411-Q686-X; His6 with pFastBacHTb leader (TEV site) (N); made in house; host or cells: Sf9 (baculovirus)
T16 sequence (Q05397 411-686): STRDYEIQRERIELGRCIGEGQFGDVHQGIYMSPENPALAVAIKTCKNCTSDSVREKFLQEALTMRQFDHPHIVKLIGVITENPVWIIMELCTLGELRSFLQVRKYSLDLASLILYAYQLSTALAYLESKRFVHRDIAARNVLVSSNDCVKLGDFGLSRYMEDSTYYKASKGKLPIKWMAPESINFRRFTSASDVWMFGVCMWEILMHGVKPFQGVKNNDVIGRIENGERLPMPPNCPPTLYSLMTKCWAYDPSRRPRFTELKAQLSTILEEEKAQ

IC50 [1] [µM] | IC50 [2] [µM] | IC50 [3] [µM] | IC50 [4] [µM] | IC50 [5] [µM] | IC50 [6] [µM] | IC50 [7] [µM] | IC50 [8] [µM] | IC50 [9] [µM] | IC50 [10] [µM] | IC50 [11] [µM] | IC50 [12] [µM] | IC50 [13] [µM] | IC50 [14] [µM] | IC50 [15] [µM] | IC50 [16] [µM] | SMILES
≤ 10 | ≤ 10 | ≤ 10 | ≤ 10 | ≤ 10 | ≤ 10 | ≤ 10 | ≤ 10 | ≤ 10 | ≤ 10 | ≤ 10 | ≤ 10 | ≤ 10 | ≤ 10 | ≤ 10 | – | O=S(=O)(NCc1c[nH]c2ncccc12)c1cc(Cl)c(Cl)s1 [Compound P-0550]
– | – | ≤ 10 | ≤ 10 | – | ≤ 10 | ≤ 10 | – | ≤ 10 | – | – | ≤ 10 | – | ≤ 10 | ≤ 10 | ≤ 10 | O=S(=O)(NCc1c[nH]c2ncccc12)c1ccc(N2CCOCC2)nc1 [Compound P-0611]
